# Assay results: ChEMBL document CHEMBL1142214, “Synergistic interaction between phenothiazines and antimicrobial agents against Burkholderia pseudomallei” (2007)
# Calls of active or inactive are those of the source. The rule behind the calls is not given here.
# Experiments:
# [1] = tested on: Burkholderia pseudomallei; test: Antimicrobial activity against Burkholderia pseudomallei KHW in presence of 1000 uM prochlorperazine; assay type: functional
# [2] = tested on: Burkholderia pseudomallei; test: Attenuation of Burkholderia pseudomallei KHW cytotoxicity in THP1 cells at 8 ug/ml in presence of 250 uM prochlorperazine; assay type: functional, organism-based; settings: THP-1
# [3] = tested on: Burkholderia pseudomallei; test: Attenuation of Burkholderia pseudomallei KHW cytotoxicity in THP1 cells at 8 ug/ml in presence of 500 uM chlorpromazine; assay type: functional, organism-based; settings: THP-1
# [4] = tested on: Burkholderia pseudomallei; test: Antimicrobial activity against Burkholderia pseudomallei KHW in presence of 31.3 uM omeprazole; assay type: functional
# [5] = tested on: Burkholderia pseudomallei; test: Antimicrobial activity against Burkholderia pseudomallei KHW in presence of 500 uM chlorpromazine; assay type: functional
# [6] = tested on: Burkholderia pseudomallei; test: Antimicrobial activity against Burkholderia pseudomallei KHW in presence of 62.5 uM chlorpromazine; assay type: functional
# [7] = tested on: Burkholderia pseudomallei; test: Antimicrobial activity against Burkholderia pseudomallei KHW in presence of 31.3 uM chlorpromazine; assay type: functional
# [8] = tested on: Burkholderia pseudomallei; test: Attenuation of Burkholderia pseudomallei KHW cytotoxicity in A549 cells at 8 ug/ml in presence of 500 uM chlorpromazine; assay type: functional, organism-based
# [9] = tested on: Burkholderia pseudomallei; test: Attenuation of THP1 cell invasion by Burkholderia pseudomallei KHW at 128 ug/ml; assay type: functional, organism-based; settings: THP-1
# [10] = tested on: Burkholderia pseudomallei; test: Antimicrobial activity against Burkholderia pseudomallei KHW in presence of 7.8 uM promazine; assay type: functional
# [11] = tested on: Burkholderia pseudomallei; test: Antimicrobial activity against Burkholderia pseudomallei KHW in presence of 1000 uM promazine; assay type: functional
# [12] = tested on: Burkholderia pseudomallei; test: Antimicrobial activity against Burkholderia pseudomallei KHW; assay type: functional
# [13] = tested on: Burkholderia pseudomallei; test: Attenuation of A549 cell invasion by Burkholderia pseudomallei KHW at 8 ug/ml in presence of 500 uM chlorpromazine; assay type: functional, organism-based
# [14] = tested on: Burkholderia pseudomallei; test: Antimicrobial activity against Burkholderia pseudomallei KHW in presence of 3.9 uM prochlorperazine; assay type: functional
# [15] = tested on: Burkholderia pseudomallei; test: Attenuation of THP1 cell invasion by Burkholderia pseudomallei KHW at 8 ug/ml in presence of 500 uM chlorpromazine; assay type: functional, organism-based; settings: THP-1
# [16] = tested on: Burkholderia pseudomallei; test: Antimicrobial activity against Burkholderia pseudomallei KHW in presence of 125 uM chlorpromazine; assay type: functional
# [17] = tested on: Burkholderia pseudomallei; test: Antimicrobial activity against Burkholderia pseudomallei KHW in presence of 31.3 uM prochlorperazine; assay type: functional
# [18] = tested on: Burkholderia pseudomallei; test: Attenuation of A549 cell invasion by Burkholderia pseudomallei KHW at 8 ug/ml; assay type: functional, organism-based
# [19] = tested on: Burkholderia pseudomallei; test: Antimicrobial activity against Burkholderia pseudomallei KHW in presence of 3.9 uM promazine; assay type: functional
# [20] = tested on: Burkholderia pseudomallei; test: Antimicrobial activity against Burkholderia pseudomallei KHW in presence of 125 uM promazine; assay type: functional
# [21] = tested on: Burkholderia pseudomallei; test: Antimicrobial activity against Burkholderia pseudomallei KHW in presence of 1000 uM chlorpromazine; assay type: functional
# [22] = tested on: Burkholderia pseudomallei; test: Antimicrobial activity against Burkholderia pseudomallei KHW in presence of 250 uM prochlorperazine; assay type: functional
# [23] = tested on: Burkholderia pseudomallei; test: Antimicrobial activity against Burkholderia pseudomallei KHW in presence of 125 uM omeprazole; assay type: functional
# [24] = tested on: Burkholderia pseudomallei; test: Antimicrobial activity against Burkholderia pseudomallei KHW in presence of 15.6 uM promazine; assay type: functional
# [25] = tested on: Burkholderia pseudomallei; test: Attenuation of THP1 cell invasion by Burkholderia pseudomallei KHW at 8 ug/ml; assay type: functional, organism-based; settings: THP-1
# [26] = tested on: Burkholderia pseudomallei; test: Attenuation of Burkholderia pseudomallei KHW cytotoxicity in A549 cells at 128 ug/ml; assay type: functional, organism-based
# [27] = tested on: Burkholderia pseudomallei; test: Attenuation of Burkholderia pseudomallei KHW cytotoxicity in A549 cells at 8 ug/ml in presence of 250 uM prochlorperazine; assay type: functional, organism-based
# [28] = tested on: Burkholderia pseudomallei; test: Antimicrobial activity against Burkholderia pseudomallei KHW in presence of 31.3 uM promazine; assay type: functional
# [29] = tested on: Burkholderia pseudomallei; test: Antimicrobial activity against Burkholderia pseudomallei KHW in presence of 250 uM promazine; assay type: functional
# [30] = tested on: Burkholderia pseudomallei; test: Attenuation of THP1 cell invasion by Burkholderia pseudomallei KHW at 8 ug/ml in presence of 250 uM prochlorperazine; assay type: functional, organism-based; settings: THP-1
# [31] = tested on: Burkholderia pseudomallei; test: Attenuation of Burkholderia pseudomallei KHW cytotoxicity in THP1 cells at 128 ug/ml; assay type: functional, organism-based; settings: THP-1
# [32] = tested on: Burkholderia pseudomallei; test: Antimicrobial activity against Burkholderia pseudomallei KHW in presence of 62.5 uM omeprazole; assay type: functional
# [33] = tested on: Burkholderia pseudomallei; test: Antimicrobial activity against Burkholderia pseudomallei KHW in presence of 1000 uM omeprazole; assay type: functional
# [34] = tested on: Burkholderia pseudomallei; test: Antimicrobial activity against Burkholderia pseudomallei KHW in presence of 500 uM prochlorperazine; assay type: functional
# [35] = tested on: Burkholderia pseudomallei; test: Attenuation of A549 cell invasion by Burkholderia pseudomallei KHW at 128 ug/ml; assay type: functional, organism-based
# [36] = tested on: Burkholderia pseudomallei; test: Antimicrobial activity against Burkholderia pseudomallei KHW in presence of 500 uM omeprazole; assay type: functional
# [37] = tested on: Burkholderia pseudomallei; test: Attenuation of A549 cell invasion by Burkholderia pseudomallei KHW at 8 ug/ml in presence of 250 uM prochlorperazine; assay type: functional, organism-based
# [38] = tested on: Burkholderia pseudomallei; test: Antimicrobial activity against Burkholderia pseudomallei KHW in presence of 7.8 uM prochlorperazine; assay type: functional
# [39] = tested on: Burkholderia pseudomallei; test: Antimicrobial activity against Burkholderia pseudomallei KHW in presence of 15.6 uM prochlorperazine; assay type: functional
# [40] = tested on: Burkholderia pseudomallei; test: Antimicrobial activity against Burkholderia pseudomallei KHW in presence of 62.5 uM promazine; assay type: functional
# [41] = tested on: Burkholderia pseudomallei; test: Antimicrobial activity against Burkholderia pseudomallei KHW in presence of 15.6 uM chlorpromazine; assay type: functional
# [42] = tested on: Burkholderia pseudomallei; test: Antimicrobial activity against Burkholderia pseudomallei KHW in presence of 3.9 uM chlorpromazine; assay type: functional
# [43] = tested on: Burkholderia pseudomallei; test: Antimicrobial activity against Burkholderia pseudomallei KHW in presence of 15.6 uM omeprazole; assay type: functional
# [44] = tested on: Burkholderia pseudomallei; test: Antimicrobial activity against Burkholderia pseudomallei KHW in presence of 250 uM omeprazole; assay type: functional
# [45] = tested on: Burkholderia pseudomallei; test: Antimicrobial activity against Burkholderia pseudomallei KHW in presence of 7.8 uM chlorpromazine; assay type: functional
# [46] = tested on: Burkholderia pseudomallei; test: Antimicrobial activity against Burkholderia pseudomallei KHW in presence of 7.8 uM omeprazole; assay type: functional
# [47] = tested on: Burkholderia pseudomallei; test: Antimicrobial activity against Burkholderia pseudomallei KHW in presence of 3.9 uM omeprazole; assay type: functional
# [48] = tested on: Burkholderia pseudomallei; test: Antimicrobial activity against Burkholderia pseudomallei KHW in presence of 250 uM chlorpromazine; assay type: functional
# [49] = tested on: Burkholderia pseudomallei; test: Antimicrobial activity against Burkholderia pseudomallei KHW in presence of 125 uM prochlorperazine; assay type: functional
# [50] = tested on: Burkholderia pseudomallei; test: Antimicrobial activity against Burkholderia pseudomallei KHW in presence of 500 uM promazine; assay type: functional
# [51] = tested on: Burkholderia pseudomallei; test: Antimicrobial activity against Burkholderia pseudomallei KHW in presence of 62.5 uM prochlorperazine; assay type: functional
compound,measurement,setting,value
CC[C@H]1OC(=O)[C@H](C)[C@@H](O[C@H]2C[C@@](C)(OC)[C@@H](O)[C@H](C)O2)[C@H](C)[C@@H](O[C@@H]2O[C@H](C)C[C@H](N(C)C)[C@H]2O)[C@](C)(O)C[C@@H](C)C(=O)[C@H](C)[C@@H](O)[C@]1(C)O [ERYTHROMYCIN],MIC,[1],8 µg/mL
same,Activity,[2],Active
same,Activity,[3],Active
same,MIC,[4],128 µg/mL
same,MIC,[5],8 µg/mL
same,MIC,[6],128 µg/mL
same,MIC,[7],128 µg/mL
same,Activity,[8],Active
same,Activity,[9],Active
same,MIC,[10],128 µg/mL
same,MIC,[11],< 0.25 µg/mL
same,MIC,[12],128 µg/mL
same,Activity,[13],Active
same,MIC,[14],128 µg/mL
same,Activity,[15],Active
same,MIC,[16],128 µg/mL
same,MIC,[17],64 µg/mL
same,Activity,[18],inactive
same,MIC,[19],128 µg/mL
same,MIC,[20],128 µg/mL
same,MIC,[21],< 0.25 µg/mL
same,MIC,[22],8 µg/mL
same,MIC,[23],128 µg/mL
same,MIC,[24],128 µg/mL
same,Activity,[25],inactive
same,Activity,[26],Active
same,Activity,[27],Active
same,MIC,[28],128 µg/mL
same,MIC,[29],64 µg/mL
same,Activity,[30],Active
same,Activity,[31],Active
same,MIC,[32],128 µg/mL
same,MIC,[33],< 0.25 µg/mL
same,MIC,[34],8 µg/mL
same,Activity,[35],Active
same,MIC,[36],128 µg/mL
same,Activity,[37],Active
same,MIC,[38],128 µg/mL
same,MIC,[39],64 µg/mL
same,MIC,[40],128 µg/mL
same,MIC,[41],128 µg/mL
same,MIC,[42],128 µg/mL
same,MIC,[43],128 µg/mL
same,MIC,[44],128 µg/mL
same,MIC,[45],128 µg/mL
same,MIC,[46],128 µg/mL
same,MIC,[47],128 µg/mL
CN[C@@H]1[C@H](O[C@H]2[C@H](O[C@H]3[C@H](O)[C@@H](O)[C@H](N=C(N)N)[C@@H](O)[C@@H]3N=C(N)N)O[C@@H](C)[C@]2(O)C=O)O[C@@H](CO)[C@H](O)[C@H]1O [STREPTOMYCIN],MIC,[1],256 µg/mL
same,MIC,[4],1020 µg/mL
same,MIC,[5],< 0.25 µg/mL
same,MIC,[6],1020 µg/mL
same,MIC,[7],1020 µg/mL
same,MIC,[10],1020 µg/mL
same,MIC,[11],0.5 µg/mL
same,MIC,[48],1020 µg/mL
same,MIC,[12],1020 µg/mL
same,MIC,[14],1020 µg/mL
same,MIC,[16],1020 µg/mL
same,MIC,[17],1020 µg/mL
same,MIC,[19],1020 µg/mL
same,MIC,[20],1020 µg/mL
same,MIC,[21],< 0.25 µg/mL
same,MIC,[22],512 µg/mL
same,MIC,[23],1020 µg/mL
same,MIC,[24],1020 µg/mL
same,MIC,[28],1020 µg/mL
same,MIC,[29],1020 µg/mL
same,MIC,[49],1020 µg/mL
same,MIC,[32],1020 µg/mL
same,MIC,[33],< 0.25 µg/mL
same,MIC,[50],516 µg/mL
same,MIC,[34],256 µg/mL
same,MIC,[36],1020 µg/mL
same,MIC,[38],1020 µg/mL
same,MIC,[39],1020 µg/mL
same,MIC,[40],1020 µg/mL
same,MIC,[41],1020 µg/mL
same,MIC,[42],1020 µg/mL
same,MIC,[43],1020 µg/mL
same,MIC,[44],1020 µg/mL
same,MIC,[45],1020 µg/mL
same,MIC,[46],1020 µg/mL
same,MIC,[47],1020 µg/mL
same,MIC,[51],1020 µg/mL
CO[C@H]1C[C@H](O[C@H]2[C@H](C)[C@@H](O[C@@H]3O[C@H](C)C[C@H](N(C)C)[C@H]3O)[C@@H](C)C[C@@]3(CO3)C(=O)[C@H](C)[C@@H](O)[C@@H](C)[C@@H](C)OC(=O)[C@@H]2C)O[C@@H](C)[C@@H]1O [OLEANDOMYCIN],MIC,[1],64 µg/mL
same,MIC,[4],> 2000 µg/mL
same,MIC,[5],128 µg/mL
same,MIC,[6],1020 µg/mL
same,MIC,[7],> 2000 µg/mL
same,MIC,[10],> 2000 µg/mL
same,MIC,[11],0.5 µg/mL
same,MIC,[48],256 µg/mL
same,MIC,[12],> 2000 µg/mL
same,MIC,[14],> 2000 µg/mL
same,MIC,[16],512 µg/mL
same,MIC,[17],512 µg/mL
same,MIC,[19],> 2000 µg/mL
same,MIC,[20],> 2000 µg/mL
same,MIC,[21],< 0.25 µg/mL
same,MIC,[22],128 µg/mL
same,MIC,[23],> 2000 µg/mL
same,MIC,[24],> 2000 µg/mL
same,MIC,[28],> 2000 µg/mL
same,MIC,[29],> 2000 µg/mL
same,MIC,[49],256 µg/mL
same,MIC,[32],> 2000 µg/mL
same,MIC,[33],< 0.25 µg/mL
same,MIC,[50],256 µg/mL
same,MIC,[34],64 µg/mL
same,MIC,[36],> 2000 µg/mL
same,MIC,[38],> 2000 µg/mL
same,MIC,[39],512 µg/mL
same,MIC,[40],> 2000 µg/mL
same,MIC,[41],> 2000 µg/mL
same,MIC,[42],> 2000 µg/mL
same,MIC,[43],> 2000 µg/mL
same,MIC,[44],> 2000 µg/mL
same,MIC,[45],> 2000 µg/mL
same,MIC,[46],> 2000 µg/mL
same,MIC,[47],> 2000 µg/mL
same,MIC,[51],256 µg/mL
